# Data: patent US20150143553A1, “Methods And Compositions Comprising A Drosophila Model Of Amyotrophic Lateral Sclerosis” (priority 2013, published 2015)
# Counter-ions that a name gives are not always drawn.
# Test system: Drosophila larvae expressing D169G TDP-43 in motor neurons
# Experiment: Drug screen: rescue of lethality caused by D169G TDP-43 expression in motor neurons (D42 Gal4)
# Assay type: in vivo
# Settings: transgene D169G; 50 μM in fly food
# Protocol: 1200 FDA approved drugs from the Prestwick collection were fed to flies expressing TDP-43 at an initial concentration of 50 μM (as previously described in Chang et al., 2008).
# FDA approved drugs from the Prestwick collection (200 mM in DMSO) are mixed with yeast-cornmeal based food and a bromophenol blue (as a mixing indicator) at a final concentration of 50 μM. Larvae expressing TDP-43 (wild type or mutant, as shown) are raised on drug containing food.
# FDA approved drugs from the Prestwick collection (200 mM in DMSO) were mixed with yeast-cornmeal based food and a bromophenol blue (as a mixing indicator) at a final concentration of 50 μM. Larvae expressing TDP-43 (wt or mutant) were raised on drug containing food.
# (§1) Using a Drosophila model of ALS based on TDP-43 that recapitulates several aspects of the disease pathophysiology (33, 35), a drug screen aimed at identifying FDA approved compounds with neuroprotective potential in vivo were designed (FIG. 37A). […] This phenotype was used to screen for drug candidates with therapeutic potential as determined by their ability to rescue pupal lethality and produce viable adults with extended wings (FIG. 37A).
row,Compound,Preliminary rescue result: adults with normal wings
1,Cc1cccc(CN2CCN(C(c3ccccc3)c3ccc(Cl)cc3)CC2)c1 (stereo not drawn) [Meclozine Dihcl],6 Adults Normal Wings
2,CCOC(=O)C(C)(C)Oc1ccc(Cl)cc1 [Clofibrate],1 Adult Normal Wings Adults
3,Clc1ccc(Nc2nnc(Cc3ccncc3)c3ccccc23)cc1 [Vatalanib],1 Adult Normal Wings Adults
4,Oc1c(Cl)cc(Cl)c2cccnc12 [Chloroxine],1 Adult Normal Wings Adults

# Test system: Drosophila larvae expressing G298S TDP-43 in motor neurons
# Experiment: Drug screen: rescue of lethality caused by G298S TDP-43 expression in motor neurons (D42 Gal4)
# Assay type: in vivo
# Settings: transgene G298S4; 30 μM in fly food
# Description: (§2) […] Larvae expressing TDP-43 (wild type or mutant, as shown) are raised on drug containing food.
# (§3) […] Larvae expressing TDP-43 (wt or mutant) were raised on drug containing food.
# as §1
# Larvae expressing TDP-43 in motor neurons (D42>TDP-43) were raised on fly food containing different amounts of drug (1, 10 and 25 μM, see Materials and Methods for details) or Dimethyl Sulfoxide (DMSO) as vehicle control (FIG. 37B, C).
# (§4) UAS TDP-43 males were crossed with D42-Gal4 female virgins on fly food containing either DMSO or pioglitazone. For DMSO controls, the same volume of DMSO as the corresponding drug concentration was added. Bromophenol blue was added to a final concentration of approximately 0.02% to ensure homogeneity. Crosses were made on drug food with 3 female virgins and 2 males in each vial, and were maintained at 25° C. unless noted. The parents were discarded after 5-7 days then the vials were screened for adult progeny with straight wings from day 14 to day 25. All adults were screened for TDP-43 expression by visualizing the YFP tag. Total number of pupae was counted on day 25. Percent survival was calculated using the formula (total number of straight-winged adults/total number of pupae)×100. All experiments were performed in triplicate.
row,Compound,Preliminary rescue result: adults with normal wings
1,c1ccc(-c2ccc(C(c3ccccc3)n3ccnc3)cc2)cc1 (stereo not drawn) [Bifonazole],1 Adult Normal Wings Adults

# Same assay, conditions: transgene G298S; 30 μM in fly food
row,Compound,Preliminary rescue result: adults with normal wings
1,N#CC(c1ccc(Cl)cc1)c1c(Cl)cc(-n2ncc(=O)[nH]c2=O)cc1Cl (stereo not drawn) [Diclazuril],1 Adults
2,CCC1(c2cccc(O)c2)CCCCN(C)C1 (stereo not drawn) [Meptazinol Hydrochloride],1 Adult Normal Wing Adults
3,CCn1nc(C(=O)O)c(=O)c2cc3c(cc21)OCO3 [Cinoxacin],1 Adult Normal Wings Adults
4,CN(Cc1cc(Br)cc(Br)c1N)C1CCCCC1.Cl [Romhexine Hydrochloride],1/2 Adult Normal Wings
5,CCCC(CCC)C(=O)O [Valproic Acid],1 Adults
6,O=C(NCCNCC(O)COc1ccc(O)cc1)N1CCOCC1.O=C(NCCNCC(O)COc1ccc(O)cc1)N1CCOCC1.O=C(O)/C=C/C(=O)O (stereo not drawn) [Xamoterol HemifiμMarate],1 Adult Normal Wing Adults
7,Nc1nc(NC2CC2)c2ncn([C@H]3C=C[C@@H](CO)C3)c2n1 [Abacavir Sulfate],1 Adult Normal Wings Adults
8,CN1CCN(c2c(F)cc3c(=O)c(C(=O)O)cn(CCF)c3c2F)CC1 [Fleroxacin],1 Adults
9,C1N2CN3CN1CN(C2)C3 [Methenamine],1 Adults
10,Cn1c([N+](=O)[O-])cnc1COC(N)=O [Ronidazole],1 Adult Normal Wings Adults

# Same assay, conditions: transgene G298S; 50 μM in fly food
row,Compound,Preliminary rescue result: adults with normal wings
1,CN(C)CCC(c1ccccc1)c1ccccn1 (stereo not drawn) [Pheniramine Maleate],1 Adult Normal Wings Adults
2,CCCN(CCC)C(=O)C(CCC(=O)O)NC(=O)c1ccccc1 (stereo not drawn) [Proglumide],3 Adults Normal Wings
3,CN1CCN(C2=Nc3cc(Cl)ccc3Nc3ccccc32)CC1 [Clozapine],1 Adult Normal Wings Adults
4,Pyrantel Tartrate,1 Adult Normal Wings Adults
5,NCCCNCCSP(=O)(O)O [Amifostine],1 Adult Normal Wings Adults
6,C[N+]1(C)CCCC(OC(=O)C(O)(c2ccccc2)c2ccccc2)C1 (stereo not drawn) [Mepenzolate Bromide],2 Adult Normal Wings Adults
7,COc1cc2ncnc(Nc3ccc(F)c(Cl)c3)c2cc1OCCCN1CCOCC1 [Gefitinib],1 Adult Normal Wings Adults
8,Cc1ccccc1C(OCCN(C)C)c1ccccc1 (stereo not drawn) [Orphenadrine],1 Adult Normal Wings Adults
9,CN(C)CCC=C1c2ccccc2CCc2ccccc21.Cl [Amitryptiline Hydrochloride],1 Adult Normal Wings Adults
10,O=c1n(CCCN2CCN(c3cccc(Cl)c3)CC2)nc2ccccn12 [Trazodone],1 Adult Normal Wings Adults
11,Nc1ccn([C@@H]2CS[C@H](CO)O2)c(=O)n1 [Lamivudine],2 Adults Normal Wings
12,C[C@H](CCC(=O)O)[C@H]1CC[C@H]2[C@@H]3[C@H](O)C[C@@H]4C[C@H](O)CC[C@]4(C)[C@H]3CC[C@]12C [Chenodiol],1 Adult Normal Wings Adults
13,C[N+]1(C)CCOC(O)(c2ccc(-c3ccc(C4(O)C[N+](C)(C)CCO4)cc3)cc2)C1.[Br-].[Br-] (stereo not drawn) [Hemicholinium Bromide],1 Adult Normal Wings Adults
14,COc1ccc(-c2ccc(=N)n(CCCC(=O)O)n2)cc1 [Gabazine],2 Adults Straight Wings
15,CCOC(=O)C1=C(C)NC(C)=C(C(=O)OCC)C1c1ccccc1/C=C/C(=O)OC(C)(C)C [Lacidipine],7 Adults
16,CCN(CC)C(=O)/C(C#N)=C/c1cc(O)c(O)c([N+](=O)[O-])c1 [Entacapone],5 Adult Normal Wings Adults
17,COc1ccc(C(CN(C)C)C2(O)CCCCC2)cc1 (stereo not drawn) [Venlafaxine],1 Adult Normal Wings Adults
18,O=C(O)c1ccccc1Nc1cccc(C(F)(F)F)c1 [Flufenamic Acid],1 Adult Normal Wings Adults

# Test system: Drosophila larvae expressing wild-type TDP-43 in motor neurons
# Experiment: Drug screen: rescue of lethality caused by wild-type TDP-43 expression in motor neurons (D42 Gal4)
# Assay type: in vivo
# Settings: transgene WT2; 30 μM in fly food
# Description: as §2, §3
# Using a Drosophila model of ALS based on TDP-43 that recapitulates several aspects of the disease pathophysiology (33, 35), a drug screen aimed at identifying FDA approved compounds with neuroprotective potential in vivo were designed (FIG. 37A). […] This phenotype was used to screen for drug candidates with therapeutic potential as determined by their ability to rescue pupal lethality and produce viable adults with extended wings (FIG. 37A). […]
# as §4
row,Compound,Preliminary rescue result: adults with normal wings
1,N#CC(c1ccc(Cl)cc1)c1c(Cl)cc(-n2ncc(=O)[nH]c2=O)cc1Cl (stereo not drawn) [Diclazuril],2 Adults
2,CCCC(CCC)C(=O)O [Valproic Acid],2 Adults
3,Cc1nccn1CC1CCc2c(c3ccccc3n2C)C1=O (stereo not drawn) [Ondansetron Hcl],1 Adult Normal Wings Adults
4,C[C@H](O)C(=O)Nc1c(I)c(C(=O)NC(CO)CO)c(I)c(C(=O)NC(CO)CO)c1I [Iopamidol],3 Adult Normal Wings Adults
5,NC1CCN(c2c(F)cc3c(=O)c(C(=O)O)cn(C4CC4)c3c2Cl)C1 (stereo not drawn) [Clinafloxacin],4 Adult Normal Wings Adults
6,Cc1nc2n(c(=O)c1CCN1CCC(c3noc4cc(F)ccc34)CC1)CCCC2 [Risperidone],1 Adult Normal Wing Adults
7,C#C[C@]1(O)CC[C@H]2[C@@H]3CCc4cc(OC)ccc4[C@H]3CC[C@@]21C [Ethynyletradiol 3-Methyl Ether],5 Adult Normal Wings Adults
8,CCC(=O)O[C@]1(C(=O)SCF)[C@H](C)C[C@H]2[C@@H]3C[C@H](F)C4=CC(=O)C=C[C@]4(C)[C@@]3(F)[C@@H](O)C[C@@]21C [Fluticasone Propionate],1 Adult Normal Wings Adults
9,CN1CCN(c2c(F)cc3c(=O)c(C(=O)O)cn(CCF)c3c2F)CC1 [Fleroxacin],3 Adults
10,Oc1c(Cl)cc(Cl)c(Cl)c1Cc1c(O)c(Cl)cc(Cl)c1Cl [Hexachlorophene],1 Adult Normal Wings Adults
11,CC(=O)N[C@@H](CC(C)C)C(=O)O [N-Acetyl-L-Leucine],1 Adult Normal Wings Adults
12,COc1cnc(NS(=O)(=O)c2ccc(N)cc2)nc1 [Sulfameter],3 Adult Normal Wings Adults
13,CCC1(c2ccccc2)NC(=O)N(C)C1=O (stereo not drawn) [Mephenytoin],2/1
14,C1N2CN3CN1CN(C2)C3 [Methenamine],2 Adults
15,CC1(C)NC(=O)N(c2ccc([N+](=O)[O-])c(C(F)(F)F)c2)C1=O [Nilutamide],11 Adult Normal Wings Adults
16,CC(C)Cn1cnc2c(N)nc3ccccc3c21 [Imiquimod],2 Adult Normal Wings Adults

# Same assay, conditions: transgene WT2; 50 μM in fly food
row,Compound,Preliminary rescue result: adults with normal wings
1,CCCN(CCC)C(=O)C(CCC(=O)O)NC(=O)c1ccccc1 (stereo not drawn) [Proglumide],"1 Adult Normal Wings, Adults"
2,COc1ccc(-c2ccc(=N)n(CCCC(=O)O)n2)cc1 [Gabazine],"4 Adults Normal Wings,"
3,CC(N)C(O)c1ccccc1 (stereo not drawn) [Phenylpropanolamine Hydrochloride],1 Adult: 1 Normal Wing Adults
4,CCOC(=O)C1=C(C)NC(C)=C(C(=O)OCC)C1c1ccccc1/C=C/C(=O)OC(C)(C)C [Lacidipine],3 Adults
5,C[C@]12CCC(=O)C=C1CC[C@H]1[C@@H]3CC[C@](O)(C(=O)CO)[C@@]3(C)C[C@H](O)[C@@]12F [Fludrocortisone],2 Adults Normal Wings
6,CC(C)NCC(O)COc1ccc(COCCOC(C)C)cc1.CC(C)NCC(O)COc1ccc(COCCOC(C)C)cc1.O=C(O)/C=C/C(=O)O (stereo not drawn) [Beoprolol Fumarate],1 Adult Normal Wings Adults
7,Cc1ccsc1/C=C/C1=NCCCN1C [Morantel Tartrate],1 Adult Normal Wings Adults
8,O=C1NCCN1c1ncc([N+](=O)[O-])s1 [Niridazole],3 Adult Normal Wings Adults
